Tested on: Fibrosis
Experiment: Area occupied by fibrosis in hematoxylin/eosin sections of sodium hypochlorite aerosol-treated rabbits
Type: in vivo, New Zealand albino rabbits
Description: It is known that the factors TGF-α, TGF-β 1, TGF-β 2, TGF-β 3, SPARC, MMP-3; MMP-7, MMP-9, MMP-11, MMP-13 and MMP-14, TGF-β, NF-kB, EGF, MMP-9, VEGF and TNF-α which are produced by lung cells (pneumocytes, fibroblasts and vascular endothelial cells) and inflammatory cells (macrophages, lymphocytes and polymorphonuclear leukocytes) are involved in the pathophysiology and development of said respiratory tract diseases. […] Herein, 27 New Zealand albino rabbits (New Zealand White Rabbit) with an initial average weight about 3 kg were used in this example. All subjects were administered an aerosol of a solution consisting of a mixture of water and sodium hypochlorite (35 g sodium hypochlorite per liter of water) at a rate of 5 mL of said solution by inhalation three times a day for 7 days (days 1 to 7 of experimentation). Subsequently, from days 3 to 7, a group of 3 rabbits (Group 1) was administered an oral dose of 10 mg/kg body weight per day, another group of 3 rabbits (Group 2) was administered an oral dose of 40 mg/kg body weight per day, a third group (Group 3) was administered an oral dose of 80 mg/kg body weight per day and a fourth group (Group 4) was administered an oral dose of 100 mg/kg body weight per day. […] This mixture was administered as an aerosol by inhalation, also from days 3 to 7, to a group of 3 rabbits (group 5) at a dose of 0.05 mg/kg body weight per day, to another group of three rabbits (Group 6) at a dose of 0.1 mg/kg body weight per day, to another group of three rabbits (Group 7) at a dose of 0.2 mg/kg body weight per day and to another group of three rabbits (Group 8) at a dose of 0.4 mg/kg body weight per day. A placebo consisting only of olive oil was administered from days 3 to 7 to a control group of 3 rabbits (placebo group). In parallel, 3 rabbits were kept under identical conditions but were not administered any treatment nor the aforementioned sodium hypochlorite solution (control group). […] On day 7 of the experiment all animals were euthanized and necropsied. […] Samples were taken at the peripheral level of the lung parenchyma, just below the pleural surface. Tissue samples were also taken from the nasal cavity, pharynx, larynx and bronchi. Immunohistochemistry studies were performed for all samples to evaluate the levels of the markers TGF-α, TGF-β 1, TGF-β 2, TGF-β 3 SPARC, MMP-3; MMP-7, MMP-9, MMP-11, MMP-14, TGF-β, TNF-α and VEGF. The samples were then allowed to cool to room temperature over 10 minutes. Endogenous peroxidase activity was blocked by treatment with 3% hydrogen peroxide over 30 min at room temperature. […] In order to verify the expression of NK1 receptors, the cell samples were incubated in the presence of anti-NK1 antibodies ([…], Sigma-Aldrich) diluted 1:1000 at 4° C. overnight. After this time they were washed in 0.05M Tris buffer at room temperature. Subsequently, Envision System-HRP (Dako) reagents were added for 30 min at room temperature. Once this time had expired, the samples were again washed with 0.05 M Tris buffer, and immunoreactivity was visualized by light microscopy with a chromogenic solution with 3,3'-diaminobenzidine (DAB+; Dako, USA). In order to differentiate the cell nuclei, these were lightly stained with haematoxylin. Samples that were not incubated with the primary antibody, but wherein this was replaced by a non-immune serum were used as negative controls. In order to evaluate markers in these immunohistochemical assays, specific primary antibodies were used against them at a concentration 1:1000, as detailed in Table 12. Furthermore, for each of the sampled sections were placed on slides and stained with haematoxylin-eosin before subsequently being deparaffinised by immersion in xylene and then rehydrated through immersion in a series of solutions containing decreasing concentrations of ethanol and, finally, immersing them in water, eosin (20 seconds) and hematoxylin (40 seconds). All experiments were performed in sextuplicate. […]

## C[C@@H](OC1OCCN(Cc2nc(=O)[nH][nH]2)C1c1ccc(F)cc1)c1cc(C(F)(F)F)cc(C(F)(F)F)c1 (stereo in doubt) [Aprepitant, 5-([(2R,3S)-2-((R)-1-[3,5-bis(trifluoromethyl)phenyl]ethoxy)-3-(4-fluorophenyl)morpholino]methyl)-1H-1,2,4-triazol-3(2H)-one]
Bronchial tissue, Group 1, oral 10 mg/kg per day
  Percent increase in Fibrosis with respect to the control group: 2,500.10%
Bronchial tissue, Group 2, oral 40 mg/kg per day
  Percent increase in Fibrosis with respect to the control group: 2,000.00%
Bronchial tissue, Group 3, oral 80 mg/kg per day
  Percent increase in Fibrosis with respect to the control group: 1,500.00%
Bronchial tissue, Group 4, oral 100 mg/kg per day
  Percent increase in Fibrosis with respect to the control group: 1,000.00%
Bronchial tissue, Group 5
  % Med G5/C: percent increase in Fibrosis with respect to the control group: 2,000.00%
Bronchial tissue, Group 6
  % Med G6/C: percent increase in Fibrosis with respect to the control group: 1,000.00%
Bronchial tissue, Group 7
  % Med G7/C: percent increase in Fibrosis with respect to the control group: 500.00%
Bronchial tissue, Group 8
  % Med G8/C: percent increase in Fibrosis with respect to the control group: 100.50%
Laryngeal tissue, Group 1, oral 10 mg/kg per day
  Percent increase in Fibrosis with respect to the control group: 250.50%
Laryngeal tissue, Group 2, oral 40 mg/kg per day
  Percent increase in Fibrosis with respect to the control group: 225.70%
Laryngeal tissue, Group 3, oral 80 mg/kg per day
  Percent increase in Fibrosis with respect to the control group: 200.57%
Laryngeal tissue, Group 4, oral 100 mg/kg per day
  Percent increase in Fibrosis with respect to the control group: 150.70%
Laryngeal tissue, Group 5, inhalation 0.05 mg/kg per day
  Percent increase in Fibrosis with respect to the control group: 375.50%
Laryngeal tissue, Group 6, inhalation 0.1 mg/kg per day
  Percent increase in Fibrosis with respect to the control group: 275.45%
Laryngeal tissue, Group 7, inhalation 0.2 mg/kg per day
  Percent increase in Fibrosis with respect to the control group: 200.60%
Laryngeal tissue, Group 8, inhalation 0.4 mg/kg per day
  Percent increase in Fibrosis with respect to the control group: 125.40%
Lung tissue, Group 1, oral 10 mg/kg per day
  Percent increase in Fibrosis with respect to the control group: 1,272.22%
Lung tissue, Group 2, oral 40 mg/kg per day
  Percent increase in Fibrosis with respect to the control group: 683.33%
Lung tissue, Group 3, oral 80 mg/kg per day
  Percent increase in Fibrosis with respect to the control group: 611.11%
Lung tissue, Group 4, oral 100 mg/kg per day
  Percent increase in Fibrosis with respect to the control group: 516.67%
Lung tissue, Group 5, inhalation 0.05 mg/kg per day
  Percent increase in Fibrosis with respect to the control group: 1,127.78%
Lung tissue, Group 6, inhalation 0.1 mg/kg per day
  Percent increase in Fibrosis with respect to the control group: 433.33%
Lung tissue, Group 7, inhalation 0.2 mg/kg per day
  Percent increase in Fibrosis with respect to the control group: 233.33%
Lung tissue, Group 8, inhalation 0.4 mg/kg per day
  Percent increase in Fibrosis with respect to the control group: 161.11%
Nasal cavity tissue, Group 1, oral 10 mg/kg per day
  Percent increase in Fibrosis with respect to the control group: 513.89%
Nasal cavity tissue, Group 2, oral 40 mg/kg per day
  Percent increase in Fibrosis with respect to the control group: 375.00%
Nasal cavity tissue, Group 3, oral 80 mg/kg per day
  Percent increase in Fibrosis with respect to the control group: 300.00%
Nasal cavity tissue, Group 4, oral 100 mg/kg per day
  Percent increase in Fibrosis with respect to the control group: 300.00%
Nasal cavity tissue, Group 5, inhalation 0.05 mg/kg per day
  Percent increase in Fibrosis with respect to the control group: 700.00%
Nasal cavity tissue, Group 6, inhalation 0.1 mg/kg per day
  Percent increase in Fibrosis with respect to the control group: 319.44%
Nasal cavity tissue, Group 7, inhalation 0.2 mg/kg per day
  Percent increase in Fibrosis with respect to the control group: 163.89%
Nasal cavity tissue, Group 8, inhalation 0.4 mg/kg per day
  Percent increase in Fibrosis with respect to the control group: 147.22%
Pharyngeal tissue, Group 1, oral 10 mg/kg per day
  Percent increase in Fibrosis with respect to the control group: 489.54%
Pharyngeal tissue, Group 2, oral 40 mg/kg per day
  Percent increase in Fibrosis with respect to the control group: 457.45%
Pharyngeal tissue, Group 3, oral 80 mg/kg per day
  Percent increase in Fibrosis with respect to the control group: 380.00%
Pharyngeal tissue, Group 4, oral 100 mg/kg per day
  Percent increase in Fibrosis with respect to the control group: 275.00%
Pharyngeal tissue, Group 5, inhalation 0.05 mg/kg per day
  Percent increase in Fibrosis with respect to the control group: 480.30%
Pharyngeal tissue, Group 6, inhalation 0.1 mg/kg per day
  Percent increase in Fibrosis with respect to the control group: 258.34%
Pharyngeal tissue, Group 7, inhalation 0.2 mg/kg per day
  Percent increase in Fibrosis with respect to the control group: 152.23%
Pharyngeal tissue, Group 8, inhalation 0.4 mg/kg per day
  Percent increase in Fibrosis with respect to the control group: 128.32%

Reference: US20170290774A1, “NEUROKININ-1 RECEPTOR ANTAGONIST COMPOSITION FOR TREATMENT OF DISEASES AND CONDITIONS OF THE RESPIRATORY TRACT” (PLUS VITECH, S.L., priority 2014, published 2017)
